What all share (assay): Kinase panel study
Type in all cases: biochemical
Holding throughout (details): read-out: Percentage of inhibition; for inhibition at 1 µM: 1000nM; for inhibition at 10 µM: 10000nM

One assay has as its target T1, PRKCQ (PKC theta) (Homo sapiens, UniProt Q04759).
T1 construct: purchased Thermo Fisher Scientific
A digest of the protocol: (§1)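 Single-point inhibition data at 10 µM or 1 µM compound are shown. They were generated in ZLyte- or Adapta-format biochemical assays performed externally under standard conditions.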

The target in a further assay is T2, AURKB (Aurora B) (Homo sapiens, UniProt Q96GD4).
T2 construct: purchased Thermo Fisher Scientific
A digest of the protocol: as §1

In a further assay the target is T3, MAPK1 (ERK2) (Homo sapiens, UniProt P28482).
T3 construct: purchased Thermo Fisher Scientific
A digest of the protocol: as §1

The target in the next assay is T4, PLK2 (Homo sapiens, UniProt Q9NYY3).
T4 construct: purchased Thermo Fisher Scientific
In a few lines: as §1

For a further assay, the target named is T5, PIK3C2B (PI3K-C2 beta) (Homo sapiens, UniProt O00750).
T5 construct: purchased Thermo Fisher Scientific
A digest of the protocol:
as §1

For a further assay, the target named is T6, BMX (Homo sapiens, UniProt P51813).
T6 construct: purchased Thermo Fisher Scientific
T6 sequence (P51813 1-675): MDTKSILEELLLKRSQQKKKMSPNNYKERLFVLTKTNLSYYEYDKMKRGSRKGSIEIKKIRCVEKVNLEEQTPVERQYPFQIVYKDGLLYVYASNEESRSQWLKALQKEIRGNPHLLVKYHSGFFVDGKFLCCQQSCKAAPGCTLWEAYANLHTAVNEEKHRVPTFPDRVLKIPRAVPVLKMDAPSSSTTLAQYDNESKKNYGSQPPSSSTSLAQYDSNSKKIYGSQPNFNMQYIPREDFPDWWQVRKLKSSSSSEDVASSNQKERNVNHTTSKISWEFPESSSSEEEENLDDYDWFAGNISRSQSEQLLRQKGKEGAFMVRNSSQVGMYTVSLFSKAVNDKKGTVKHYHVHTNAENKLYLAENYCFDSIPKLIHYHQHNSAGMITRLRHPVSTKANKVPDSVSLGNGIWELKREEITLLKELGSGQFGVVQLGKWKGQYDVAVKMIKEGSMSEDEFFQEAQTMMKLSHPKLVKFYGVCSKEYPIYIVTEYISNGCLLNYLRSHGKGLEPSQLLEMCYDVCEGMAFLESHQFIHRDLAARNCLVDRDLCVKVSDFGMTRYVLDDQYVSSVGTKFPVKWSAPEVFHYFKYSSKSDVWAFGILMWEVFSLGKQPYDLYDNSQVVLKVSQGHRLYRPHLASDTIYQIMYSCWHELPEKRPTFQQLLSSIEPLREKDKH
A digest of the protocol: as §1

The target in another assay is T7, MARK4 (Homo sapiens, UniProt Q96L34).
T7 construct: purchased Thermo Fisher Scientific
T7 sequence (Q96L34 1-752): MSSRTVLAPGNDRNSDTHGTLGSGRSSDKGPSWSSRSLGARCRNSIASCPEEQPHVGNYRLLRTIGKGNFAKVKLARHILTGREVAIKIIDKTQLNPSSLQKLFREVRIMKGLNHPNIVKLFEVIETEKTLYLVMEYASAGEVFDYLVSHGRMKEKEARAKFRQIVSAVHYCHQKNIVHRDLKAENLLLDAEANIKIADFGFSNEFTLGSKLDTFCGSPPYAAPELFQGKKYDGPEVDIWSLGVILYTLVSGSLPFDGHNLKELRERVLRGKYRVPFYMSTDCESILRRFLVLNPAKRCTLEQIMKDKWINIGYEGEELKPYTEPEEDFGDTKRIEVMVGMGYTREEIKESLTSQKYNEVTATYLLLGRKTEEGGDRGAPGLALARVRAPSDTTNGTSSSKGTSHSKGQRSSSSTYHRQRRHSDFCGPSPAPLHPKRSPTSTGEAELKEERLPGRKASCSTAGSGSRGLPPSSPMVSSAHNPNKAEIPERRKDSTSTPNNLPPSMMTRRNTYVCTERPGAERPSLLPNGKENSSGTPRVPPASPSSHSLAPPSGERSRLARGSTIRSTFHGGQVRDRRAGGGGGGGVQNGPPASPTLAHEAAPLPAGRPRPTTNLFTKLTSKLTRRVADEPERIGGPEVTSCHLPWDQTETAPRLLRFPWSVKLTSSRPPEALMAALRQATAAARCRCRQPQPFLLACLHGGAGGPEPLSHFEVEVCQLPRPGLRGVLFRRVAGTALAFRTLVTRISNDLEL
A digest of the protocol:
as §1

A further assay has as its target T8, MARK1 (MARK) (Homo sapiens, UniProt Q9P0L2).
T8 construct: purchased Thermo Fisher Scientific
In a few lines:
as §1

Structures are written as SMILES.

T2 sequence (Q96GD4 whole entry): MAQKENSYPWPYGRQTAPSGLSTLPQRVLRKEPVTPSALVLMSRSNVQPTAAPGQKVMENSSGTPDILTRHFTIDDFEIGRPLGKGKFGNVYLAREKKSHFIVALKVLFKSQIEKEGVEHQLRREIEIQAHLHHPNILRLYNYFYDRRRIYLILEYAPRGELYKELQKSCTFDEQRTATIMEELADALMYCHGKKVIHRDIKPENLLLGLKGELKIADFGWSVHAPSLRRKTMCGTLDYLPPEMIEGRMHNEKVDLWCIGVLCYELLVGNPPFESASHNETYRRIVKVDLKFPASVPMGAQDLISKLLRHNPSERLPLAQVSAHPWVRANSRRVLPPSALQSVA
T4 sequence (Q9NYY3 whole entry): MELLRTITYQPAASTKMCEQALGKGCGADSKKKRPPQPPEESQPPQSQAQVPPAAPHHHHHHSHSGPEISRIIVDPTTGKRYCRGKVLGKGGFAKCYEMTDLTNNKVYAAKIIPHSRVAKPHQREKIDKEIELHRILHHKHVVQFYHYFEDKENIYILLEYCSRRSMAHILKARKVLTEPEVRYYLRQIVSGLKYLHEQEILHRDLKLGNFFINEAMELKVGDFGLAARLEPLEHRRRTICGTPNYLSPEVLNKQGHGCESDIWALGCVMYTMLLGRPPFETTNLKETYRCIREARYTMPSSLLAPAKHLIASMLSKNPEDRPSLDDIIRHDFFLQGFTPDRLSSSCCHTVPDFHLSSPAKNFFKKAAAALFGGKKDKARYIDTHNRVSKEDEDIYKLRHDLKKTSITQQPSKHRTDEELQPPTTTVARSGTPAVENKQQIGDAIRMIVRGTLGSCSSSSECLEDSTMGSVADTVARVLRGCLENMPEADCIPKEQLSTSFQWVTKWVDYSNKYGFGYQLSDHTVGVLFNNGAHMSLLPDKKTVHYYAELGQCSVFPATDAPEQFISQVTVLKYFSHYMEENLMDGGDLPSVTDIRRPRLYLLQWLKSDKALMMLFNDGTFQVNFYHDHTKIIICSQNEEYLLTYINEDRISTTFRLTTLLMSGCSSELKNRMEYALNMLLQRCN
T5 sequence (O00750 whole entry): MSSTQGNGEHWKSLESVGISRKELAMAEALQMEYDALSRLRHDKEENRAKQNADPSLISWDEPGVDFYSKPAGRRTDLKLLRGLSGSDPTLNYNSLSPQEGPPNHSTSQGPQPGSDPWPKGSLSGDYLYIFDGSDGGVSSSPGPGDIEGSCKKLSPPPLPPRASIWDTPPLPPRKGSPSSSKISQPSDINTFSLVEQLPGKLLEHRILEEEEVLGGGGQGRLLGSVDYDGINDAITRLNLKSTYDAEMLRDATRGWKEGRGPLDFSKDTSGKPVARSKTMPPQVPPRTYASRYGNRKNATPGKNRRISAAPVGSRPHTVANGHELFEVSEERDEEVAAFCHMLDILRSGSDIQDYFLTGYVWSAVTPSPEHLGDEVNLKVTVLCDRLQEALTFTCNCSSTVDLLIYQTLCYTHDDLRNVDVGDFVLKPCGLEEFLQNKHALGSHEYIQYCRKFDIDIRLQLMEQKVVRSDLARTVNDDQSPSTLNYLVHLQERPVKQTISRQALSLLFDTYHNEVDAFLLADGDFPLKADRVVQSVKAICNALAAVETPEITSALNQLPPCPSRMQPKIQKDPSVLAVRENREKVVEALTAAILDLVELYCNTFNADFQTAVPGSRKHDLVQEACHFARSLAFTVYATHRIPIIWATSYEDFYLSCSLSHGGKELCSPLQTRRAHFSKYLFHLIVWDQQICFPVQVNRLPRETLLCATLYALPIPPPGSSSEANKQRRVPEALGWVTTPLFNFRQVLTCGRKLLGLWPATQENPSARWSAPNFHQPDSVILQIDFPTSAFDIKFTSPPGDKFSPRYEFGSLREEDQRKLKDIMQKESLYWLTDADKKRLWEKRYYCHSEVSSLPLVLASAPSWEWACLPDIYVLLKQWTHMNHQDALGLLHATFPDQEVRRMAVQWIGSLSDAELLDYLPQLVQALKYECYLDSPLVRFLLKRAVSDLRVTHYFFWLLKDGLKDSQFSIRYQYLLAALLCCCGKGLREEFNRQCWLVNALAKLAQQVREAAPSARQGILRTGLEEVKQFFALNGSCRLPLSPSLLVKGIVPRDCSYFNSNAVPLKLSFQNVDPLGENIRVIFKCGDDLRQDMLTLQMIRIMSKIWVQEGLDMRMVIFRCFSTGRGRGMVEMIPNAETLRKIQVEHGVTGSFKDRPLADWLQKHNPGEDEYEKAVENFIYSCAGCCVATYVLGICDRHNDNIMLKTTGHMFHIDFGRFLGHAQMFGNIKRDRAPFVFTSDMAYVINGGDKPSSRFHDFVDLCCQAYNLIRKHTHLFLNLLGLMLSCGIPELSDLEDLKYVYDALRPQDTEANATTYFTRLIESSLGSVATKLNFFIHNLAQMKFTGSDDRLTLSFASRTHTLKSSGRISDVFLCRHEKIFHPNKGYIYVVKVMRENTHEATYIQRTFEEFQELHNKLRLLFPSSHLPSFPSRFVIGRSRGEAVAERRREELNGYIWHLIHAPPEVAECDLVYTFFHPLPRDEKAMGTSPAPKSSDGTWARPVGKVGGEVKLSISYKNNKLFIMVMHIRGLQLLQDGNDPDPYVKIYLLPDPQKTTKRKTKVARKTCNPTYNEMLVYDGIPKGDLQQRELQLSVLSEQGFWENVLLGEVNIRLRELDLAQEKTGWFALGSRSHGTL
T3 sequence (P28482 whole entry): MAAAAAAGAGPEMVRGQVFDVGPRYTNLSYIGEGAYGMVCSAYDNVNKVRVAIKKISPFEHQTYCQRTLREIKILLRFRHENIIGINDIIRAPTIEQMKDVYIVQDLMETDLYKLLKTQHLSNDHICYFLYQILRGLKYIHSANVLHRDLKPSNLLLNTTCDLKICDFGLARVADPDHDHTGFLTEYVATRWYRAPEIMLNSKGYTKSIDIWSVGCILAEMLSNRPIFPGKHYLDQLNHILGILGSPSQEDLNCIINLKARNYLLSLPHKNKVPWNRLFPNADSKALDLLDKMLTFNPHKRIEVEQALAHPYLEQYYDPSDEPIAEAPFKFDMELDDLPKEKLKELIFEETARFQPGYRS
T8 sequence (Q9P0L2 whole entry): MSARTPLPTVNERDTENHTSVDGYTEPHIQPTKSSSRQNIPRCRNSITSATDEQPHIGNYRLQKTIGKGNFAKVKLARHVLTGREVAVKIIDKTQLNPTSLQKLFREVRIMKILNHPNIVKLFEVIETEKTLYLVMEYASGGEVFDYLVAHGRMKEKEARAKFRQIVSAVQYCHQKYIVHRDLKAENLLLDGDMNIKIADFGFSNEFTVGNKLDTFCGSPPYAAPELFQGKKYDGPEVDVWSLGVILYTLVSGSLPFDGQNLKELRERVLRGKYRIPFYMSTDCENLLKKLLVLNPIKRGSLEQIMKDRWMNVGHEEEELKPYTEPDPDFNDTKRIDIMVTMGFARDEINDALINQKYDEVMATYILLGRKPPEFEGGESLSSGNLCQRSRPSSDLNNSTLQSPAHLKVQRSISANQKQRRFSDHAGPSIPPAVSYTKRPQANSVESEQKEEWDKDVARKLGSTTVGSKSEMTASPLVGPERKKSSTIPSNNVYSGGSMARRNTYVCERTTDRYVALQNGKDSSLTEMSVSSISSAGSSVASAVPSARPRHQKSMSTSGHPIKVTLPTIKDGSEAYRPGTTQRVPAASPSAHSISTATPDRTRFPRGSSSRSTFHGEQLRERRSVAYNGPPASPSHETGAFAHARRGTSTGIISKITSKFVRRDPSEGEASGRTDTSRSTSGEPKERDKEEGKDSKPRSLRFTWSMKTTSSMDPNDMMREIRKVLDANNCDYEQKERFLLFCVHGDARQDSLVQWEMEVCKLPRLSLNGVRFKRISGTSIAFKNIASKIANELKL
T1 sequence (Q04759 whole entry): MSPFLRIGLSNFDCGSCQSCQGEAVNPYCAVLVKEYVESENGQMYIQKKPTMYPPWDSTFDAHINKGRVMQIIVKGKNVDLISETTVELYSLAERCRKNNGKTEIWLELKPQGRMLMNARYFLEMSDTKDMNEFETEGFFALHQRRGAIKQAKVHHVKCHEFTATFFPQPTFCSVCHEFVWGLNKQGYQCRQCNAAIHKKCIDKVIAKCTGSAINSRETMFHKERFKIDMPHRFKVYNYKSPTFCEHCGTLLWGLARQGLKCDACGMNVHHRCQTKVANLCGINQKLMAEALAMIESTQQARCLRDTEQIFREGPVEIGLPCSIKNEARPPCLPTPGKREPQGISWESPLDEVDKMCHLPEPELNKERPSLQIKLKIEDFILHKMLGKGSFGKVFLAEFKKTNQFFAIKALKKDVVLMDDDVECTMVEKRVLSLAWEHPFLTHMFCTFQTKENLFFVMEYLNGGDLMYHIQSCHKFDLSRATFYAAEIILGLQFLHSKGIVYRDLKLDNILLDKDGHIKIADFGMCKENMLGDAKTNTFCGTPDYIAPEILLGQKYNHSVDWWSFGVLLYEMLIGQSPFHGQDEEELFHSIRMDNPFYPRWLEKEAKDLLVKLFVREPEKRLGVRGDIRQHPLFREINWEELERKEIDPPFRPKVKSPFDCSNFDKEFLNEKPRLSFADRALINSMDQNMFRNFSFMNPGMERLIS

As a reminder, the inhibition is the change of the read-out against control, counted positive when it falls. Consider `COc1ccc2c(c1OC)c(=O)n1c3ccc(O)cc3c3ccnc2c31` [MW01, 5-Hydroxy-10,11-dimethoxy-9H-benzo[c]indolo[3,2,1-ij][1,5]naphthyridin-9-one], for which the inhibition at 1 µM on PRKCQ (PKC theta) is 4%; on AURKB (Aurora B) it was 15%; at MAPK1 (ERK2) it was 4%; at PLK2, -1%; on PIK3C2B (PI3K-C2 beta) it was 53%; on BMX, -8%. Also, the inhibition at 1 µM on MARK4 is 9%; at MARK1 (MARK), 4%. The inhibition at 10 µM was 21% at PRKCQ (PKC theta); 19% at AURKB (Aurora B); 9% on MAPK1 (ERK2); -2% at PLK2; 68% at PIK3C2B (PI3K-C2 beta); 6% at BMX. Moreover, the inhibition at 10 µM was 15% on MARK4 and 6% on MARK1 (MARK).

For the compound `COc1ccc2cc3c(N)nn(C(=O)c4cccc(N(C)C)c4)c3nc2c1` [MW05, (3-Amino-7-methoxypyrazolo[3,4-b]quinolin-1-yl)-[3-(dimethylamino)phenyl]methanone], the inhibition at 1 µM on PRKCQ (PKC theta) is 2%; at AURKB (Aurora B) it was 8%; on MAPK1 (ERK2), 5%; at PLK2 it was 3%; at PIK3C2B (PI3K-C2 beta) it was 2%; on BMX it was -10%. Besides, the inhibition at 1 µM was -3% on MARK4 and 3% at MARK1 (MARK). Moreover, the inhibition at 10 µM was -15% on PRKCQ (PKC theta); -6% on AURKB (Aurora B); 7% on MAPK1 (ERK2); -2% on PLK2; 12% on PIK3C2B (PI3K-C2 beta); 4% on BMX. Besides, the inhibition at 10 µM at MARK4 was -10%; at MARK1 (MARK) it was -5%.

These data come from patent publication EP4467141A1, “PYRAZOLO-QUINOLINES AS SELECTIVE INHIBITORS OF GENOTOXIC STRESS-INDUCED IKK/NF- KB PATHWAYS FOR CANCER THERAPY” (Max-Delbrück-Centrum für Molekulare Medizin in der …, priority 2023, dated 2024).
